{"source": "patent US20110104662A1", "about": "“Methods of Detecting Inhibitors of VIF-Mediated APOBEC3G Degradation and HIV” (RIGEL PHARMACEUTICALS, INC., priority 2007, published 2011)", "key": {"[1]": {"tested_on": "Vif-mediated APOBEC3G degradation", "assay": "Cell-based screening assay, Vif/APOBEC3G-luciferase HeLa line", "set-up": "species or system HIV", "conditions": "10 μM MG132 for 24 hours; selected blasticidin-resistant Vif/APOBEC3G-luciferase HeLa clone", "from_the_text": "Inhibitors of Vif-mediated APOBEC3G degradation were screened using a cell-based assay. The assay uses HeLa cells that stably expresses Vif and APOBEC3G fused at its C-terminus to firefly luciferase. Under steady-state conditions, there is very little luciferase activity. When degradation of the APOBEC3G-luciferase fusion is inhibited, a significant increase in the luciferase activity is observed.\nConstruction of screening line (Vif/APOBEC3G-luciferase HeLa line). HeLa cells were cotransfected with a 1:1 ratio of pcDNA6-Vif and pcDNA3.1-APOBEC3G-luciferase plasmids using Fugene transfection reagent. Twenty-four hours after transfection, cells were trypsinized and different dilutions plated on 10 cm dishes. After attachment, stable transfectants were selected using medium containing 10 μg/ml blasticidin S. The blasticidin resistance gene is carried in the pcDNA6-Vif plasmid. Individual clones were plated in duplicate 96-well plates, treated with either DMSO or 10 μM MG132 for 24 hours, and then assayed for luciferase activity. […] The presence of Vif and APOBEC3G-luciferase proteins was confirmed by treating cells with 10 μM MG132 overnight and analyzing cell lysates for both Vif and APOBEC3G-luciferase by western blotting (See FIG. 7B)."}, "A3G-luciferase (A3G-luc) [2]": {"tested_on": "A3G-luciferase (A3G-luc)", "assay": "APOBEC3G-luciferase activity in virus supernatant of co-transfected 293T cells", "type": "cell-based", "conditions": "10 uM MG132", "from_the_text": "(§1) In all embodiments employing cotransfection of a wild-type or Δvif HIV genome together with an APOBEC3G-fluorescent reporter fusion, adjusting the relative ratio of plasmids encoding the wild-type (WT) or Δvif HIV genomes and A3G-luciferase (A3G-luc) for cotransfection in virus producer cells (e.g., 293T cells) is useful for achieving an optimal signal to background ratio and dynamic assay range for antiviral compound characterization. Adjusting the cotransfection ratio is also useful for obtaining a linear correlation between the fluorescent reporter (e.g., luciferase) signal and the level of A3G-fluorescent reporter protein detected by Western blotting. The luciferase activity ratio of (Δvif HIV+A3G-luc) over (WT HIV+A3G-luc) in both virus supernatant and 293T cell lysates was measured.\n(§2) 293T cells were seeded in 6-well plates at 500,000 cells/well density. On the second day, 4 μg of wild-type or delta vif HIV-1 construct and pcDNA3.1-APOBEC3G-luciferase construct plasmid DNA were co-transfected into 293T cells using Lipofectamine 2000 (Invitrogen). On the third day, cells were detached with trypsin and plated into 24-well plates at 300,000 cells/well density. On the fourth day, medium was replaced in each well with either 0.5% DMSP medium or with compound and 0.5% DMSO containing medium.\nTwenty hours post dosing, the culture supernatant from Example 5 was harvested and filtered through a 0.45μ filter. Twenty microliters of virus supernatant from each sample were transferred into a 96-Well plate. 30 μL of culture medium and 50 μL of Bright-Glo lysis buffer (Promega), were added to each well, followed by 50 μL of Bright-Glo Substrate (Promega). The luciferase activity from the virus supernatant was then detected using a Top Count reader (Perkin Elmer). The concentration of virus particles in the supernatant was determined by p24 ELISA (Perkin Elmer). The luciferase activity of the virus supernatant was then normalized relative to the concentration of virus particles by dividing the background corrected luciferase light units by the p24 values."}, "A3G-luciferase (A3G-luc) [3]": {"tested_on": "A3G-luciferase (A3G-luc)", "assay": "APOBEC3G-luciferase activity in 293T cell lysate of co-transfected virus producer cells", "type": "cell-based", "conditions": "10 uM MG132", "from_the_text": "as §1, §2\nTwenty hours post dosing, the virus producing 293T cells of Example 5 were lysed with 200 μL of Bright-Glo lysis buffer in 24-well plates. Cell lysates were diluted 1:100 in PBS. 10 μL of each lysate sample were transferred to small well 96-well plates and 10 μL of Bright-Glo substrate were added to each well. The luciferase activity from the cell lysates was then detected using a Top Count reader. The total protein concentration was determined using the Quant-IT Protein Assay Kit (Molecular Probes). The luciferase activity was normalized relative to total cellular protein by dividing the background corrected luciferase light units by the total protein concentration."}, "[4]": {"conditions": "Experiment 1, co-transfection ratio 19:1"}, "[5]": {"conditions": "Experiment 1, co-transfection ratio 39:1"}, "[6]": {"conditions": "Experiment 1, co-transfection ratio 79:1"}, "[7]": {"conditions": "Experiment 1, co-transfection ratio 159:1"}, "[8]": {"conditions": "Experiment 2, co-transfection ratio 19:1"}, "[9]": {"conditions": "Experiment 2, co-transfection ratio 39:1"}, "[10]": {"conditions": "Experiment 2, co-transfection ratio 79:1"}, "[11]": {"conditions": "Experiment 2, co-transfection ratio 159:1"}}, "note": "Where a SMILES comes first, the peptide text is derived from it. The star is where a group is joined. Cbz = O=C(OCc1ccccc1)*", "data": [{"smiles": "CC(C)C[C@@H](C=O)NC(=O)[C@H](CC(C)C)NC(=O)[C@H](CC(C)C)NC(=O)OCc1ccccc1", "note": "[MG132] (Cbz-Leu-Leu-Leu-aldehyde)", "values": [{"measurement": "window in luciferase activity between DMSO and MG132", "setting": "[1]", "result": "at least a ten-fold window in luciferase activity"}, {"measurement": "RLU ratio (delta vif HIV + A3G-luc/WT HIV + A3G-luc), Virus sup. (RLU)", "setting": "A3G-luciferase (A3G-luc) [2]; [4]", "result": 3.2}, {"measurement": "RLU ratio (delta vif HIV + A3G-luc/WT HIV + A3G-luc), Virus sup. (RLU)", "setting": "A3G-luciferase (A3G-luc) [2]; [5]", "result": 5.5}, {"measurement": "RLU ratio (delta vif HIV + A3G-luc/WT HIV + A3G-luc), Virus sup. (RLU)", "setting": "A3G-luciferase (A3G-luc) [2]; [6]", "result": 5.9}, {"measurement": "RLU ratio (delta vif HIV + A3G-luc/WT HIV + A3G-luc), Virus sup. (RLU)", "setting": "A3G-luciferase (A3G-luc) [2]; [7]", "result": 4.7}, {"measurement": "RLU ratio (delta vif HIV + A3G-luc/WT HIV + A3G-luc), Virus sup. (RLU)", "setting": "A3G-luciferase (A3G-luc) [2]; [8]", "result": 9.2}, {"measurement": "RLU ratio (delta vif HIV + A3G-luc/WT HIV + A3G-luc), Virus sup. (RLU)", "setting": "A3G-luciferase (A3G-luc) [2]; [9]", "result": 3.9}, {"measurement": "RLU ratio (delta vif HIV + A3G-luc/WT HIV + A3G-luc), Virus sup. (RLU)", "setting": "A3G-luciferase (A3G-luc) [2]; [10]", "result": 16.8}, {"measurement": "RLU ratio (delta vif HIV + A3G-luc/WT HIV + A3G-luc), Virus sup. (RLU)", "setting": "A3G-luciferase (A3G-luc) [2]; [11]", "result": 9.2}, {"measurement": "RLU ratio (delta vif HIV + A3G-luc/WT HIV + A3G-luc), 293 T cell lysate (RLU)", "setting": "A3G-luciferase (A3G-luc) [3]; [4]", "result": 2.6}, {"measurement": "RLU ratio (delta vif HIV + A3G-luc/WT HIV + A3G-luc), 293 T cell lysate (RLU)", "setting": "A3G-luciferase (A3G-luc) [3]; [5]", "result": 2.4}, {"measurement": "RLU ratio (delta vif HIV + A3G-luc/WT HIV + A3G-luc), 293 T cell lysate (RLU)", "setting": "A3G-luciferase (A3G-luc) [3]; [6]", "result": 3.7}, {"measurement": "RLU ratio (delta vif HIV + A3G-luc/WT HIV + A3G-luc), 293 T cell lysate (RLU)", "setting": "A3G-luciferase (A3G-luc) [3]; [7]", "result": 6.8}, {"measurement": "RLU ratio (delta vif HIV + A3G-luc/WT HIV + A3G-luc), 293 T cell lysate (RLU)", "setting": "A3G-luciferase (A3G-luc) [3]; [8]", "result": 1.4}, {"measurement": "RLU ratio (delta vif HIV + A3G-luc/WT HIV + A3G-luc), 293 T cell lysate (RLU)", "setting": "A3G-luciferase (A3G-luc) [3]; [9]", "result": 1.8}, {"measurement": "RLU ratio (delta vif HIV + A3G-luc/WT HIV + A3G-luc), 293 T cell lysate (RLU)", "setting": "A3G-luciferase (A3G-luc) [3]; [10]", "result": 2.9}, {"measurement": "RLU ratio (delta vif HIV + A3G-luc/WT HIV + A3G-luc), 293 T cell lysate (RLU)", "setting": "A3G-luciferase (A3G-luc) [3]; [11]", "result": 8.7}]}]}
